# “Also recorded” adds a separate entry of the source.
# Key:
# NMDA receptor = conditions: cited from earlier work
# select neurons = conditions: cited from earlier work
# [1] = test system: primary cultured mouse cortical neurons; test: OGD toxicity (neuronal loss, LDH release); format: cell-based; conditions: MK-801
# Procedure: (§1) Cultures of mouse primary cortical neurons were prepared as described previously and modified [Leng T D, Lin J, Sun H W, Zeng Z, O'Bryant Z, Inoue K, et al. Local anesthetic lidocaine inhibits TRPM7 current and TRPM7-mediated zinc toxicity. CNS Neurosci Ther 2015; 21: 32-9.]. The use of mice for neuronal cultures was approved by the Institutional Animal Care and Use Committee of Morehouse School of Medicine. Briefly, the brains of fetuses (embryonic day 16) were removed quickly from anesthetized pregnant Swiss mice and placed in cold Ca2+/Mg2+-free PBS. Cerebral cortices were dissected and incubated with 0.05% trypsin-EDTA for 10 min at 37° C., followed by trituration. Cells were plated in 35-mm poly-L-ornithine-coated culture dishes at a density of 1×10^6 cells. […]
# (§2) LDH release was measured using a cytotoxicity detection kit (Cat. No. 11644793001, Roche Diagnostics) according to the manufacturer's instruction, as described in previous studies [Leng T D, Lin J, Sun H W, Zeng Z, O'Bryant Z, Inoue K, et al. Local anesthetic lidocaine inhibits TRPM7 current and TRPM7-mediated zinc toxicity. […] The absorbance at 492 and 620 nm was measured by spectrometer (SpectraMax Plus, Molecular devices, Sunnyvale, CA, USA). LDH release was determined based on subtracting absorbance at 620 nm from that at 492 nm.
# [2] = test system: primary cultured mouse cortical neurons; test: NMDA toxicity (neuronal loss, LDH release); format: cell-based; conditions: MK-801 10 μM
# Procedure: as §1, §2
# CYP46A = CYP46A (Homo sapiens, UniProt Q9Y6A2); conditions: cited from earlier work
# Chain of CYP46A (Q9Y6A2 whole entry): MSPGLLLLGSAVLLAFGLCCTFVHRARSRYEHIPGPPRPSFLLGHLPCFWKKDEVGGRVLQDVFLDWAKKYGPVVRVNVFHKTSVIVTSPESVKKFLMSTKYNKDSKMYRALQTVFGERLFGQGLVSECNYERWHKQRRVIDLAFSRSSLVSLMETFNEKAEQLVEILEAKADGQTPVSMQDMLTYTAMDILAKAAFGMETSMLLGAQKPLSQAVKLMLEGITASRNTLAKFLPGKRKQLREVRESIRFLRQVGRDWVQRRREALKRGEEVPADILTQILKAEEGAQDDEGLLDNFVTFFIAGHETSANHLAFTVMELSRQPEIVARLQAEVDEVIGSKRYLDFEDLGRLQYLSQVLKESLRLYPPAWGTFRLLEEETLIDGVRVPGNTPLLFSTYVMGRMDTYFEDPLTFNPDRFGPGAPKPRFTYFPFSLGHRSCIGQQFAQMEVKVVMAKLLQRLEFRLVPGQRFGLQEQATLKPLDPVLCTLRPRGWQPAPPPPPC
# CYP46A1 = CYP46A1 (Homo sapiens, UniProt Q9Y6A2); conditions: cited from earlier work
# Chain of CYP46A1 (Q9Y6A2 whole entry, species assumed): as the sequence (Q9Y6A2 whole entry) above
# 5XFAD mice = test: Alzheimer's disease model in 5XFAD mice; conditions: 5XFAD test mice
# Procedure: 5XFAD mice are obtained. 5XFAD transgenic mice express 5 human familial Alzheimer's disease (FAD) mutants in amyloid-beta precursor protein (APP) and presenilin 1 (PS1) driven by the Thy1 promoter. […] Experimental 5XFAD mice are obtained by crossing heterozygous transgenic mice with C57BL/6 wild-type breeders. Wild-type littermates are used as controls and randomly allotted to each experiment. Male mice are used in all experiments. All mice are housed in a standard animal facility with a 12 h alternating light/dark cycle.
# Control mice are administered a placebo.
# A Barns maze protocol is performed. Briefly, the apparatus is a revolvable white acrylic disc elevated from the floor with 18 holes equally spaced along the perimeter of the circle and positioned in a brightly light. One hole is selected as the escape target hole, and a dark escape chamber is placed under the target hole consistent for each trial. Mice are allowed to freely explore on the platform for 5 min without the escape chamber, and habituated to the escape chamber for 2 min on two consecutive days. In the training phase, a session of 2 trials is performed by each mouse. Each mouse is covered under a nontransparent cylinder placed in the center of the maze. After 15 s, the cylinder is gently removed to allow mouse to explore the maze for 180 s until the target hole is found. […] The maze and the escape chamber are wiped with 70% ethanol. The mouse is identified to find the target chamber when the back of the mice crossed the target hole. The mouse is considered to have entered the target chamber if the entire body is on the platform. The primary latency that mice took to find the target hole is documented for each trial. Two trials per day are performed for eight days. For the probe test, memory retention is assessed 5 days after the last training trial. The duration of the probe trial is 90 s. […] The position of the target hole is the same as that in the training period. The primary latency to find the target hole and time in the target quadrant is analyzed by Anymaze software.
# A T maze protocol is performed. Briefly, before performing the task, the diet of mice is restricted daily to hold 80% to 85% of their primary body weight throughout the task. The T maze apparatus is placed in a quiet room, and light intensity is held at a constant level. During the training, a forced choice is followed by a free choice for each trial. In the forced-choice phase, a food pellet is placed in either the left or right choice arm. The door to the choice arm with food pellet is opened, while the other choice arm is closed. The mouse is allowed to consume the pellet. When the pellet is consumed, the mouse is returned to the start arm. After the forced choice is completed, the free choice is initialized. During the free choice, all doors are open; the mouse is allowed to freely enter one of two arms. If the mouse entered the same arm as in the forced-choice phase, the trial is considered to result in an “error,” and the pellet is removed. If the mouse entered the opposite arm as in the forced-choice phase, the trial is considered to have a “correct” result, and the mouse is rewarded with a food pellet. Following each session, the apparatus is cleaned with 70% ethanol. Six consecutive trials are performed in a session per day. The percentage of correct responses is calculated in each session.
# Motor activity and anxiety is studied in the open field test. […] The mouse activity is monitored under an infrared camera for 5 min.
# [3] = test system: MCAO induced ischemic brain injury; test: MCAO ischemic stroke model, TTC staining; format: in vivo, mice; conditions: ICV 40 μM stock, 1 μl, 3 h before 45 min MCAO, TTC at 24 h
smiles,measurement,setting,value
"C[C@]12N[C@H](Cc3ccccc31)c1ccccc12 [MK-801, dizocilpine]",Aβ[1-42]-triggered excitotoxicity via the NMDA receptor,NMDA receptor,can be prevented
same,cytoplasmic vacuoles in select neurons,select neurons,causes cytoplasmic vacuoles in select neurons
same,inhibition of 24S-HC increased OGD toxicity,[1],completely inhibited
same,inhibition of 24S-HC increased OGD toxicity,[1]; listed as MK801,completely abolishes the toxicity of 24S-HC
same,inhibition of 24S-HC increased NMDA toxicity,[2],completely inhibited
same,inhibition of 24S-HC increased NMDA toxicity,[2]; listed as MK801,completely abolishes the toxicity of 24S-HC
N[C@@H]1C[C@H]1c1ccccc1 (racemic) [tranylcypromine],affinity for CYP46A,CYP46A,nanomolar affinity
S=C(NC1CCCCC1)N1CCC(c2cnc[nH]2)CC1 [thioperamide],affinity for CYP46A,CYP46A,nanomolar affinity
Clc1ccccc1C(c1ccccc1)(c1ccccc1)n1ccnc1 [clotrimazole],affinity for CYP46A,CYP46A,nanomolar affinity
C[C@@H](c1ncncc1F)[C@](O)(Cn1cncn1)c1ccc(F)cc1F [voriconazole],affinity for CYP46A,CYP46A,nanomolar affinity
same,synthesis of 24S-HC in vitro,CYP46A1; at ˜1 M (so in the source),almost completely inhibit
same,inhibitor of CYP46A1,CYP46A1,potent inhibitor
same,Aβ deposition,5XFAD mice,attenuate Aβ deposition
same,cognitive functions,5XFAD mice,improve cognitive functions
same,microgliosis,5XFAD mice,decrease microgliosis
same,neuroinflammation,5XFAD mice,reduce neuroinflammation
same,synapse loss and neuronal loss,5XFAD mice,reversed
same,"ischemic brain injury (infarction, TTC staining)",[3],reduces ischemic brain injury
same,"ischemic brain injury (infarction, TTC staining)",[3]; listed as Vori,dramatically reduced ischemic brain injury; also recorded: protects against 45 min MCAO induced ischemic brain injury

# From patent US20240189312A1, “COMPOSITION FOR TREATING ACUTE BRAIN INJURY OR NEURODEGENERATIVE DISEASE, METHOD OF MAKING, AND USE THEREOF” (priority 2022, published 2024)
